Test results taken from ChEMBL document CHEMBL4354831, “Novel Cell-Penetrating Peptide Conjugated Proteasome Inhibitors: Anticancer and Antifungal Investigations” (J Med Chem, 2020).
Values after ≈ are worked out from the molar mass of the structure shown. Active and inactive are the calls of the source. No cut-off for these calls is given here. Peptide text beside a SMILES is read from it.

How the values were obtained:
HeLa [1] = assay: Antiproliferative activity against human HeLa cells assessed as reduction in cell viability after 48 hrs by MTT assay; type: functional, cell-based
BE(2)-C [2] = assay: Antiproliferative activity against human BE(2)-C cells assessed as reduction in cell viability after 48 hrs by MTT assay; type: functional, cell-based
[3] = Selectivity ratio of IC50 for antiproliferative activity against human BE(2)-C cells to IC50 for antiproliferative activity against human HeLa cells after 48 hrs by MTT assay; type: functional
20S proteasome = assay: Inhibition of human 20S proteasome using Suc-LLVY-AMC as substrate measured every 5 mins for 120 mins by fluorescence based assay; type: protein-complex assay
Candida albicans [4] = assay: Antifungal activity against Candida albicans SC5314 after 48 hrs; type: functional; conditions: SC5314, 48 h
HeLa [5] = assay: Antiproliferative activity against human HeLa cells assessed as reduction in cell viability at 1000 uM after 48 hrs by MTT assay relative to control; type: functional
BE(2)-C [6] = assay: Antiproliferative activity against human BE(2)-C cells assessed as reduction in cell viability at 1000 uM after 48 hrs by MTT assay relative to control; type: functional
HeLa [7] = assay: Induction of pore formation in human HeLa cell membrane at 2xIC50 after 12 hrs by SEM analysis; type: cell-based
BE(2)-C [8] = assay: Induction of pore formation in human BE(2)-C cell membrane at 2xIC50 after 12 hrs by SEM analysis; type: functional, cell-based
HeLa [9] = assay: Induction of membrane blebbing in human HeLa cells at 2xIC50 after 12 hrs by SEM analysis; type: cell-based; conditions: Cell membrane
BE(2)-C [10] = assay: Induction of membrane blebbing in human BE(2)-C cells at 2xIC50 after 12 hrs by SEM analysis; type: cell-based; conditions: Cell membrane
Candida albicans [11] = assay: Antifungal activity against Candida albicans SC5314 at 100 uM after 48 hrs; type: functional, organism-based
Candida albicans [12] = assay: Induction of pore formation in Candida albicans SC5314 membrane by SEM analysis; type: organism-based; conditions: Cell membrane
Candida albicans [13] = assay: Induction of hyphal disruption in Candida albicans SC5314 by SEM analysis; type: organism-based; conditions: Hyphae

| Compound | IC50 (HeLa [1]) [µM] | IC50 (BE(2)-C [2]) [µM] | Ratio IC50 [3] | IC50 (20S proteasome) [µM] | MIC (Candida albicans [4]) [µM] | inhibition at 1000 µM (HeLa [5]) [%] | inhibition at 1000 µM (BE(2)-C [6]) [%] | Activity (HeLa [7]) | Activity (BE(2)-C [8]) | Activity (HeLa [9]) | Activity (BE(2)-C [10]) | Activity (Candida albicans [11]) | Activity (Candida albicans [12]) | Activity (Candida albicans [13]) |
| --- | --- | --- | --- | --- | --- | --- | --- | --- | --- | --- | --- | --- | --- | --- |
| CC(=O)N[C@@H](Cc1ccc(O)cc1)C(=O)N[C@@H](CC(C)C)C(=O)N[C@@H](Cc1ccccc1)C(=O)N[C@H](C=O)CC(C)C (Ac-YLFL-aldehyde) | 29.4 | 43.3 | 1.5 | 0.0064 | > 100 |  |  |  |  |  |  |  |  |  |
| CC(=O)N[C@@H](Cc1ccc(O)cc1)C(=O)NCC(=O)N[C@@H](CCCNC(=N)N)C(=O)N[C@@H](CCCCN)C(=O)N[C@@H](CCCCN)C(=O)N[C@@H](CCCNC(=N)N)C(=O)N[C@@H](CCCNC(=N)N)C(=O)N[C@@H](CCC(N)=O)C(=O)N[C@@H](CCCNC(=N)N)C(=O)N[C@@H](CCCNC(=N)N)C(=O)N[C@@H](CCCNC(=N)N)C(=O)O | 62.5 | 94 |  |  |  | 70 | 70 | inactive | inactive | inactive | inactive | inactive |  |  |
| CC(=O)N[C@@H](CC(C)C)C(=O)N[C@@H](CC(C)C)C(=O)N[C@H](C=O)CC(C)C (Ac-Leu-Leu-Leu-aldehyde) | 39.1 | 61.3 | 1.5 | 0.136 | > 100 |  |  |  |  |  |  |  |  |  |
| C[C@@H]1[C@H](O)[C@@H](C)/C=C/C=C/C=C/C=C/C=C/C=C/C=C/[C@H](O[C@@H]2O[C@H](C)[C@@H](O)[C@H](N)[C@@H]2O)C[C@@H]2O[C@](O)(C[C@@H](O)C[C@@H](O)[C@H](O)CC[C@@H](O)C[C@@H](O)CC(=O)O[C@H]1C)C[C@H](O)[C@H]2C(=O)O [AMPHOTERICIN B] |  |  |  |  | 1.56 (≈ 1.44 µg/mL) |  |  |  |  |  |  |  | Active | inactive |
